Experiment [1] addresses T1, avidin (Gallus gallus, UniProt P02701).
T1 construct: gene AVD; homotetramer by known biology (monomers A and C mentioned)
The experiment can be described thus: isothermal titration calorimetry; co-crystal structure […] Å. The class given is binding. (In ITC the heat of successive injections is recorded.)

Experiment [2] addresses T1, avidin. In words: isothermal titration calorimetry; HABA assay. The format is binding.

Molecules are shown by their SMILES.

T1 sequence (P02701 25-152): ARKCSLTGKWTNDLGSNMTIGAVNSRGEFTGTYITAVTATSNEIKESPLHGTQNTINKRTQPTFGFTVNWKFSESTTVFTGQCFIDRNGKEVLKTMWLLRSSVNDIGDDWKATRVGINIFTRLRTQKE

In the case of `O=C(CCCC[C@@H]1SC[C@@H]2NC(=O)N[C@@H]21)NCCc1cc([N+](=O)[O-])ccc1O` [compound 7], the Kd (commonly the free concentration of one partner at which half of the binding sites on the other are occupied at equilibrium, for simple one-to-one binding) on avidin [1] is 225 nM.

On to `CC(C)Cn1cnc2c(NC(=O)OCCOC(=O)Oc3ccc([N+](=O)[O-])cc3CCNC(=O)CCCC[C@@H]3SC[C@@H]4NC(=O)N[C@@H]43)nc3ccccc3c21` [compound 8, LDNPC (8)], for which, on avidin [2], the Kd turned out to be 104 nM.

These data come from paper PMC7702144, “A Ligand-Directed Nitrophenol Carbonate for Transient in situ Bioconjugation and Drug Delivery” (ChemMedChem, 2020).
